In PubChem BioAssay (NCI):
“And” between values parts separate entries of the source, which are not always exact repeats. Equal values may be shown once.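 These data come from cells grown in 96-well plates and exposed to compound for 48 hours at five concentrations. GI50 = concentration required for 50% inhibition of growth. TGI marks complete inhibition of growth.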

How the values were obtained:
Assay in all cases: inhibition of tumour cell growth, NCI panel, 48 h
[1] = test system: EKVX NSCLC
[2] = test system: U251 CNS
[3] = test system: NCI-H226 lung
[4] = test system: OVCAR-4 ovarian
[5] = test system: MDA-MB-231 breast
[6] = test system: OVCAR-3 ovarian
[7] = test system: SF-268 CNS
[8] = test system: SNB-19 CNS
[9] = test system: HCT-15 colon
[10] = test system: KM20L2 colon

Structure (SMILES)	TGI [1]	TGI [2]	TGI [3]	TGI [4]	TGI [5] [µM]	TGI [6]	TGI [7] [µM]	TGI [8]	TGI [9]	TGI [10]	GI50 [1] [nM]	GI50 [10] [nM]	GI50 [4] [nM]	GI50 [9] [nM]
CCOC(=O)c1cc([N+](=O)[O-])cc([N+](=O)[O-])c1Sc1ncnc2nc[nH]c12	13.1 µM	24.8 µM	> 100 µM	2.41 µM	24.9	2.45 µM	16	43 µM	19.7 µM	–	–	–	–	–
Nc1ccn(CCCC(c2ccccc2)P(=O)(O)O)c(=O)n1 (centres undefined)	–	> 100 µM	–	–	–	> 100 µM	> 100	> 100 µM	> 100 µM	> 100 µM	–	–	–	–
COC(=O)C1=C(C)NC2=C(C(=O)c3ccccc32)C1c1cn[nH]c1-c1ccccc1 (centres undefined)	> 100 µM	> 100 µM	> 100 µM	> 100 µM	> 100	> 100 µM	> 100	> 100 µM	> 100 µM	–	–	–	–	–
COC(=O)CC1NC(=O)C1C(C)(OC)OC (centres undefined)	> 100 µM	> 100 µM	> 100 µM	> 100 µM	–	> 100 µM	> 100	> 100 µM	> 100 µM	> 100 µM	–	–	–	–
O=C(CC(=O)N1N=C(c2ccccc2)C(N=Nc2ccccc2Cl)C1=O)Nc1ccccc1Cl (centres undefined)	> 100 µM	> 100 µM	> 100 µM	63.2 µM	–	81.3 µM	> 100	> 100 µM	> 100 µM	> 100 µM	–	–	–	–
CN(C)CCNC(=O)c1cccc2[nH]c(-c3ccc(Cl)cc3)nc12	34.3 µM	18 µM	14.4 µM	21.2 µM	–	27.7 µM	38.4	31.5 µM	19.9 µM	18.6 µM	–	–	–	–
CCOC(=O)C1=C(O)c2ccc(OC)cc2C(=O)C1=O	> 100 µM	> 100 µM	> 100 µM	> 100 µM	–	> 100 µM	> 100	> 100 µM	> 100 µM	> 100 µM	–	–	–	–
N/C(=N/N=C/c1cccc(F)c1)NO	> 100 µM	> 100 µM	> 100 µM	> 100 µM	–	> 100 µM	68.7	> 100 µM	> 100 µM	> 100 µM	–	–	–	–
Cc1cc(C)c(C(=O)/C(=C/c2ccccc2)c2ccccc2)c(C)c1	> 100 µM	> 100 µM	> 100 µM	> 100 µM	–	> 100 µM	> 100	> 100 µM	> 100 µM	> 100 µM	–	–	–	–
O=C1C=CC(=O)[C@H]2C3C=CC(C4C3C3(Cl)C(Cl)=C(Cl)[C@]4(Cl)C3(Cl)Cl)[C@@H]12 (some centres undefined)	15 µM	13.3 µM	23.5 µM	16.2 µM	16.7	8.98 µM	18.4	17 µM	16.6 µM	–	–	–	–	–
CC(C)OC(=O)c1cccnc1/C=N/O	> 100 µM	> 100 µM	> 100 µM	–	–	> 100 µM	> 100	> 100 µM	> 100 µM	> 100 µM	–	–	–	–
COc1cc(CC(=O)c2cc3c(cc2-c2ccccc2)OCO3)cc(OC)c1OC	> 100 µM	> 100 µM	79.3 µM	> 100 µM	–	> 100 µM	> 100	> 100 µM	> 100 µM	> 100 µM	–	–	–	–
c1ccc(Sc2nc(Sc3ccccc3)nc(Sc3ccccc3)n2)cc1	> 100 µM	> 100 µM	77.9 µM	> 100 µM	> 100	34.5 µM	> 100	> 100 µM	> 100 µM	–	–	–	–	–
NC(CS)C(=O)NCCNc1ccc(NCCNC(=O)C(N)CS)c2c1C(=O)c1c(O)ccc(O)c1C2=O (centres undefined)	1.05 µM and 0.274 µM	0.136 µM and 0.117 µM	0.0616 µM and 0.0476 µM	0.847 µM and 0.401 µM	1.62	1.76 µM and 1.58 µM	0.953	1.11 µM and 1.21 µM	0.864 µM and 0.584 µM	1.49 µM and 1.37 µM	53.8	195	109	38.4
O=[N+]([O-])c1ccc2c(N=Nc3ccc4ccccc4c3O)c(O)cc(S(=O)(=O)O)c2c1	> 82.1 µM	> 100 µM	52.5 µM	> 100 µM	> 100	99.5 µM	63.9	> 83.2 µM	> 100 µM	–	–	–	–	–
Brc1ccc(C[N+]23CN4CN(CN(C4)C2)C3)cc1	> 100 µM	> 100 µM	–	–	–	> 100 µM	> 100	> 100 µM	69 µM	> 100 µM	–	–	–	–
O=C(CBr)NCCc1c[nH]c2ccccc12	3.72 µM	3.53 µM	2.64 µM	4 µM	4.49	4.09 µM	7.59	20 µM	4.36 µM	–	–	–	–	–
O=c1cc(NNc2cccc(F)c2)[nH]c(=S)[nH]1	> 100 µM	> 100 µM	> 100 µM	> 100 µM	> 100	> 100 µM	> 100	> 100 µM	> 100 µM	–	–	–	–	–
COc1ccc(N2C(=O)C3C=CC(n4[nH]c(=O)n(Cc5ccccc5)c4=O)CC3C2=O)cc1 (centres undefined)	> 100 µM	> 100 µM	> 100 µM	–	–	> 100 µM	> 100	> 100 µM	> 100 µM	> 100 µM	–	–	–	–
NCCN(CCN)/[N+]([O-])=N/O	> 100 µM	> 100 µM	> 100 µM	> 100 µM	> 100	> 100 µM	> 100	> 100 µM	> 100 µM	–	–	–	–	–
O=C(CSc1nnc(-c2ccc(N=Cc3ccc(Cl)cc3)cc2)o1)Nc1cccc([N+](=O)[O-])c1	> 100 µM	> 100 µM	> 100 µM	> 100 µM	–	–	> 100	> 100 µM	> 100 µM	> 100 µM	–	–	–	–
N#CC(C#N)C1CN2CCC1CC2 (centres undefined)	> 100 µM	> 100 µM	> 100 µM	> 100 µM	> 100	> 100 µM	> 100	> 100 µM	> 100 µM	–	–	–	–	–
Clc1ccc(Nc2nnc(CNc3ccc(-c4nnc(Nc5ccc(Cl)cc5)o4)cc3)o2)cc1	44.4 µM	23.2 µM	47.3 µM	42.6 µM	25.4	23.9 µM	73.9	46 µM	35.4 µM	–	–	–	–	–
